Data set [1] in a line: Cytostatic activity against human WI38 cells after 72 hrs by MTT assay. The class given is cell-based. As to conditions: WI-38, 72 h.
The subject of data set [2] is Human betaherpesvirus 5. Description: Antiviral activity against HCMV AD169 infected in HEL cells assessed as reduction of virus-induced cytopathogenicity after 3 days. The class given is functional, organism-based. As to conditions: Human betaherpesvirus 5, AD169, HEL, 72 h. (Cytopathic effects are the visible damage that an infection or toxin causes in cultured cells.)

Data set [3] relates to Human betaherpesvirus 5. Description: Antiviral activity against HCMV Davis infected in HEL cells assessed as reduction of virus-induced cytopathogenicity after 3 days. It counts as functional, organism-based. As to conditions: Human betaherpesvirus 5, Davis, 72 h.
Data set [4] in a line: Cytotoxicity against HEL cells assessed as change in cell morphology. It counts as cell-based. As to conditions: human.
The nature of data set [5]: Cytotoxicity against HEL cells assessed as reduction in cell growth. The conditions noted are these: human. It counts as cell-based.
The test system of data set [6] is Human alphaherpesvirus 1. Description: Antiviral activity against HSV1 infected in HEL cells assessed as reduction of virus-induced cytopathogenicity. It counts as functional, organism-based.
The subject of data set [7] is Human alphaherpesvirus 2. Description: Antiviral activity against HSV2 infected in HEL cells assessed as reduction of virus-induced cytopathogenicity. The class given is functional, organism-based.
The subject of data set [8] is Vesicular stomatitis virus. Description: Antiviral activity against vesicular stomatitis virus infected in HEL cells assessed as reduction of virus-induced cytopathogenicity. The class given is functional, organism-based.
Data set [9] deals with Mammalian orthoreovirus 1. Description: Antiviral activity against Reovirus 1 infected in african green monkey Vero cells assessed as reduction of virus-induced cytopathogenicity. It counts as functional, organism-based.
Data set [10] concerns Human respirovirus 3. Description: Antiviral activity against parainfluenza virus 3 infected in african green monkey Vero cells assessed as reduction of virus-induced cytopathogenicity. The class given is functional, organism-based.
The subject of data set [11] is Sindbis virus. Description: Antiviral activity against Sindbis virus infected in african green monkey Vero cells assessed as reduction of virus-induced cytopathogenicity. The class given is functional, organism-based.
In data set [12] the test system is Coxsackievirus B4. Description: Antiviral activity against Coxsackievirus B4 infected in african green monkey Vero cells assessed as reduction of virus-induced cytopathogenicity. It counts as functional, organism-based.
The test system of data set [13] is Punta Toro virus. Description: Antiviral activity against Punta Toro virus infected in african green monkey Vero cells assessed as reduction of virus-induced cytopathogenicity. It counts as functional, organism-based.
Data set [14] has as its system Vesicular stomatitis virus. Description: Antiviral activity against vesicular stomatitis virus infected in HeLa cells assessed as reduction of virus-induced cytopathogenicity. The class given is functional, organism-based.
The subject of data set [15] is Coxsackievirus B4. Description: Antiviral activity against Coxsackievirus B4 infected in HeLa cells assessed as reduction of virus-induced cytopathogenicity. The class given is functional, organism-based.
Data set [16] has as its system Respiratory syncytial virus. Description: Antiviral activity against respiratory syncytial virus infected in HeLa cells assessed as reduction of virus-induced cytopathogenicity. It counts as functional, organism-based.
The test system of data set [17] is L1210. Description: Cytostatic activity against mouse L1210 cells after 72 hrs by MTT assay. It counts as functional, cell-based. As to conditions: L1210, 72 h. On the technique in general: Formazan colour is commonly taken as a measure of viable cells.
Data set [18] deals with CCRF-CEM. Description: Cytostatic activity against human CEM cells after 72 hrs by MTT assay. The class given is functional, cell-based.
The nature of data set [19]: Cytostatic activity against human Molt4/C8 cells after 72 hrs by MTT assay. The conditions noted are these: MOLT-4, 72 h. The class given is functional, cell-based.
In data set [20] the test system is HeLa. Description: Cytostatic activity against human HeLa cells after 72 hrs by MTT assay. The class given is functional, cell-based.
The subject of data set [21] is MIA PaCa-2. Description: Cytostatic activity against human MiaPaCa2 cells after 72 hrs by MTT assay. The class given is functional, cell-based. The conditions noted are these: MIA PaCa-2, 72 h.
Data set [22] concerns SW-620. Description: Cytostatic activity against human SW620 cells after 72 hrs by MTT assay. The conditions noted are these: SW-620, 72 h. The class given is functional, cell-based.
Data set [23] deals with MCF7. Description: Cytostatic activity against human MCF7 cells after 72 hrs by MTT assay. The conditions noted are these: MCF7, 72 h. The class given is functional, cell-based.
The subject of data set [24] is NCI-H460. Description: Cytostatic activity against human H460 cells after 72 hrs by MTT assay. The conditions noted are these: NCI-H460, 72 h. The class given is functional, cell-based.

Activity calls are given as the source filed them. No cut-off for these calls is given here. A value given as a limit tells only on which side of the number the result lay.

For the compound `COc1cc(NC(C)CCCNC(=O)NCc2ccncc2)c2ncccc2c1` (stereo not given), the IC50 came to 10 µM in data set [1]; 3 µM in data set [17]; 2.9 µM in [18]; 24 µM in data set [19]; 18 µM in data set [20]; 20 µM in data set [21]. Besides, the IC50 is 2 µM in data set [22], 30 µM in [23] and 48 µM in [24]. In addition, the EC50 turned out to be 13.4 µM in data set [2] and 1.2 µM in data set [3]. Further, in data set [4], the MCC was 100 µM. The CC50 in data set [5] was found to be 72 µM. The outcome in [6], in [7], in data set [8], in [9], in [10] and in data set [11] was inactive. The outcome in data set [12], in [13], in data set [14], in data set [15] and in data set [16] was inactive.
For `COc1cc(NC(C)CCCNC(=O)NC2CCCC2)c2ncccc2c1` (stereo not given), the IC50 in data set [1] was 29 µM; in data set [17], 41 µM; in data set [18] it was 41 µM; in data set [19], 44 µM; in data set [20] it was 21 µM; in [21] it was 19 µM. Further, the concentration for half-maximal inhibition (IC50) in data set [22] came out at 19 µM; in data set [23] it was 30 µM; in data set [24] it was 25 µM. Besides, the EC50 in [2] was over 20 µM; in data set [3], 12 µM. Moreover, the MCC in data set [4] was 100 µM. Moreover, the CC50 in [5] turned out to be 56 µM. For the same compound, the result in data set [6], in [7], in [8], in data set [9], in data set [10] and in data set [11] was inactive. In addition, the result in data set [12], in data set [13], in data set [14], in [15] and in data set [16] was inactive.
As to `Nc1ccn(C[C@@H](CO)OCP(=O)(O)O)c(=O)n1` [CIDOFOVIR], the MCC in data set [4] is over 1270 µM.
For `COc1cc(NC(C)CCCNC(=O)NCC2CCCCC2)c2ncccc2c1` (stereo not given), the IC50 is over 100 µM in [1]; 22 µM in [17]; 22 µM in data set [18]; 53 µM in data set [19]; over 100 µM in data set [20]; 60 µM in data set [21]. The half-inhibitory concentration (IC50) in data set [22] was 61 µM; in data set [23], 61 µM; in data set [24], over 100 µM. For the same compound, the EC50 in data set [2] was 15.3 µM; in data set [3], 7.6 µM. The MCC in data set [4] came to 100 µM. The 50% cytotoxic concentration (CC50) in data set [5] was 74 µM. In addition, the outcome in data set [6], in data set [7], in data set [8], in [9], in [10] and in [11] was inactive. In addition, the result in data set [12], in data set [13], in data set [14], in [15] and in data set [16] was inactive.
Regarding `COc1cc(NC(C)CCCNC(=O)n2nnc3ccccc32)c2ncccc2c1` (stereo not given) [PRIMAQUINE BENZOTRIAZOLIDE], the IC50 is over 100 µM in data set [1]; 125 µM in data set [17]; over 100 µM in data set [18]; 74 µM in [19]; 71 µM in data set [20]; 84 µM in [21]. In addition, the half-inhibitory concentration (IC50) in [22], in data set [23] and in data set [24] was over 100 µM each time. Moreover, the values for the concentration giving a half-maximal response (EC50) in [2] and in [3] were over 100 µM and over 30 µM, respectively. Moreover, the MCC in data set [4] was over 100 µM. The CC50 in data set [5] stood at 72 µM. Further, the outcome in data set [6], in [7], in data set [8], in [9], in [10] and in data set [11] was inactive. Also, the outcome in data set [12], in data set [13], in data set [14], in data set [15] and in [16] was inactive.
For the compound `COc1cc(NC(C)CCCNC(=O)NCCc2ccccc2)c2ncccc2c1` (stereo not given), the IC50 in data set [1] is over 100 µM; in data set [17], 24 µM; in [18] it was 34 µM; in data set [19] it was 45 µM; in [20], over 100 µM; in data set [21], 30 µM. The half-inhibitory concentration (IC50) in data set [22] was determined as 32 µM; in data set [23], 27 µM; in data set [24], 54 µM. Moreover, the figures for the EC50 in [2] and in data set [3] were 12.6 µM and 2.9 µM, respectively. Also, in data set [4], the MCC is over 100 µM. The CC50 in data set [5] was 56 µM. The result in data set [6], in data set [7], in data set [8], in [9], in data set [10] and in data set [11] was inactive. The outcome in data set [12], in data set [13], in data set [14], in data set [15] and in data set [16] was inactive.
Regarding `CCN(CC)C(=O)NCCCC(C)Nc1cc(OC)cc2cccnc12` (stereo not given), the IC50 in [1] is over 100 µM; in data set [17], 207 µM; in data set [18], 142 µM; in data set [19], 155 µM; in data set [20], 58 µM; in data set [21], over 100 µM. Also, the results for the IC50 in [22], in data set [23] and in [24] were over 100 µM, over 63 µM and over 100 µM, respectively. The concentration giving a half-maximal response (EC50) in [2] was 49 µM; in data set [3], 26 µM. Besides, the MCC in data set [4] was over 100 µM. In addition, in data set [5], the CC50 is over 100 µM. In addition, the result in [6], in [7], in data set [8], in [9], in [10] and in [11] was inactive. Further, the outcome in data set [12], in data set [13], in data set [14], in data set [15] and in [16] was inactive.
Turning to `COc1cc(NC(C)CCCNC(=O)NCc2ccccc2)c2ncccc2c1` (stereo not given), the IC50 in data set [1] worked out at 35 µM; in data set [17], 22 µM; in [18], 18 µM; in data set [19] it was 21 µM; in data set [20], 15 µM; in data set [21] it was 21 µM. In addition, the half-inhibitory concentration (IC50) in data set [22] amounted to 9 µM; in data set [23] it was 25 µM; in data set [24], 30 µM. For the same compound, the EC50 in data set [2] is over 20 µM; in [3] it was 7.6 µM. Moreover, the MCC in data set [4] amounted to 100 µM. Moreover, the CC50 in [5] was 66 µM. The outcome in data set [6], in [7], in data set [8], in data set [9], in [10] and in data set [11] was inactive. Also, the outcome in [12], in data set [13], in data set [14], in data set [15] and in data set [16] was inactive.
On to `Nc1nc(O)c2ncn(COC(CO)CO)c2n1` [GANCICLOVIR], for which the MCC in data set [4] is over 1580 µM.

As a reminder, the IC50 is the concentration needed to halve the response being measured. The term EC50 denotes the concentration at which the effect is half-maximal. In general, CC50 refers to the concentration giving 50% cytotoxicity.

These data come from ChEMBL document CHEMBL1156695, “The novel primaquine derivatives of N-alkyl, cycloalkyl or aryl urea: synthesis, cytostatic and antiviral activity evaluations” (Eur J Med Chem, 2008).
